Values of other authors in patent US20170121368A1, “NOVEL COMPOUNDS COMPRISING A BOMBESIN DERIVATIVE, A PROCESS FOR THE PREPARATION THEREOF AND A NUCLEAR MOLECULAR IMAGING AGENT COMPRISING THE SAME” (priority 2015, published 2017).
No end group written: not given here.

Test system: human prostate cancer model
Details: 68Ga label, PET, human prostate cancer model in laboratory mice

Substance: GRP: Gastrin-releasing peptide labeled with 68Ga, literature PET study (VPLPAGGGTVLTKMYPRGNHWAVGHLM-NH2; ends and bridges not checked; also: 68Ga radiolabel; UniProt P07492 24-50, looked up)
- uptake rate: 9.5 % ID/g
